Measured values as given in patent US7390875B2, “Method for binding, in solution, a peptide and a lipophilic vector and uses thereof” (Institut Pasteur de Lille, priority 2000, dated 2008).
Starred links: 1 amine or outer side, 2 acyl side, 3 side chain; linkers in the order of their positions; H or OH if unused. Hydrazinoacetyl = O=C(CNN[*:1])[*:2]

Tested on: class II molecules of the MHC at the surface of COLO 205 cells
Assay: Quantification of the expression of class II MHC molecules at the surface of COLO 205 cells after incubation with lipopeptides (flow cytometry)
Assay type: cell-based, human
Details: Table IIIb; for Ratio (mean fluorescence treated vs non-treated cells): L243 antibody / ALEXA 488
Experimental: 2) Protocol for Quantification of the Expression of Molecules of Class II of the Major Histocompatibility Complex (MHC) at the Surface of the Cells.
The COLO 205 cells (human cell line obtained from a carcinoma of the colon) come from the ATCC (American Type Culture Collection) cell bank. They are cultivated in an RPMI 1640 medium (Gibco BRL, Courbevoie, France) with 10% of fetal calf serum (FCS) and 5 mM of sodium pyruvate, and incubated at 37° C. in the presence of 5% of CO2. […]
The surface expression of the class II molecules of the MHC is analysed using flow cytometry with a Coulter EPICS II cytometer, at the rate of 10,000 events per sample. The fluorescence intensity observed is directly proportional to the quantity of class II molecules of the MHC present on the surface of the cells. The mean fluorescence value observed for the non-treated cells and for the treated cells (“Mean” column in Table III) makes it possible to calculate a ratio between the mean fluorescence value of the non-treated cells and the mean fluorescence value for the treated cells (“Ratio” column in Table III). The control consists in incubating the cells in the absence of lipopeptides.

## L-MU-IFNγc: presumably peptide Mu-IFNγ c (SEQ ID NO: 12) coupled with palmitoyl vector (IIIa); synthesis not described (H-K(Hydrazinoacetyl)AKFEVNNPQVQRQAFNELIRVVHQLLPESSLRKRKRSR-NH2; also: palmitoyl vector (IIIa) coupled by hydrazone bond)
5 μM lipopeptide
  Ratio (mean fluorescence treated vs non-treated cells): 2.14
5 μM lipopeptide, L243 antibody revealed by second antibody coupled to ALEXA 488, control mean 0.607
  Mean (mean fluorescence value): 1.3
10 μM lipopeptide
  Ratio (mean fluorescence treated vs non-treated cells): 2.83
10 μM lipopeptide, L243 antibody / ALEXA 488, control mean 0.607
  Mean (mean fluorescence value): 1.72
35 μM lipopeptide
  Ratio (mean fluorescence treated vs non-treated cells): 24.8
35 μM lipopeptide, L243 antibody / ALEXA 488, control mean 0.607
  Mean (mean fluorescence value): 15.1
